# Like-named read-outs stand apart in the source and are kept apart here.
# Experiments:
# HMGCS = assay: qPCR HMGCS transcript level in HepG2 cells; type: cell-based; conditions: Homo sapiens, 20 h
# Procedure: (§1) In the primary screen, HepG2 cells were plated in 384-well plates at 2000 cells per well and incubated for 20 hours with each compound in duplicate at 10 microM concentration. Then RNA was isolated, reverse-transcribed to cDNA, and stored at −80° C. Expression levels of TRIB1 and other target genes, such as SORT1 and PCSK9, were determined by quantitative PCR. Relative gene expression level was normalized to expression of the housekeeping gene, GAPDH. A “hit” was defined as those compounds that caused a greater than 2-fold increase in relative target gene expression when normalized to GAPDH expression, compared to DMSO-treated control. Using these criteria, 130 hits were identified for TRIB1 (0.8% hit rate).
# (§2) Further analysis of the expression levels of various proteins in the cholesterol and triglyceride biosynthetic pathways in response to TRIB1 inducer treatment was performed. In particular, transcript levels of additional lipoprotein metabolism pathway proteins SCAP, SREBF1, SREBF2, HMGCR, HMGCS, SCD1, FASN and MTTP were assessed by qPCR, along with TRIB1, LDLR, and PCSK9. The gene expression profile for the same subset of genes was also assessed after treatment with the statin atorvastatin (Lipitor), commonly used in therapy for hypercholesterolemia and other cardiovascular diseases.
# TRIB1 [1] = assay: qPCR TRIB1 expression in HepG2 cells; type: cell-based, human; conditions: Homo sapiens, 20 h; HepG2 cells
# Procedure: as §1, §2
# (§3) The kinetics of the modulation of TRIB1, LDLR, PCSK9 and MTTP gene expression after treatment by select TRIB1 inducer compounds was monitored by qPCR analysis (FIG. 4). RNA was extracted from cells at various timepoints over 28 hours of treatment (0, 2, 4, 6, 8, 24, 28 hours). Specifically, compounds 12a and 14a induced transcriptional responses over time similar to those produced by berberine, a plant alkaloid used in Chinese medicine. […] Both compound 12a and compound 14a induce TRIB1 and LDLR and repress PCSK9 and MTTP expression with similar kinetics and similar fold change as berberine Importantly, both compounds induce these gene expression changes at much lower concentrations than berberine. […] This increased potency indicates the potential therapeutic efficacy of such compounds for treatment of cardiovascular diseases, particularly hypercholesterolemia and related conditions.
# LDLR [2] = assay: ELISA of LDLR protein in HepG2 cells; type: cell-based, human; conditions: for ELISA LDLR: HepG2 cells; for EC50: Homo sapiens, HepG2, 24 h, read-out: ELISA 24 Hr (EC50 uM) LDLR increase
# Procedure: (§4) Additional secondary assays were performed in HepG2 cells to further characterize the cellular response to treatment with select confirmed TRIB1 inducer hits. The results of the ELISA, CTG, and qPCR secondary assays are summarized in Table B. For all secondary assays, the experiments were performed using powders of freshly purified compounds.
# (§5) To further characterize the relationship of TRIB1 induction and PCSK9 reduction, ELISAs were performed to measure the levels of secreted ApoB, PCSK9, and LDLR. […] As predicted treatment with TRIB1 inducer hits caused a decrease in ApoB levels detected by ELISA. In parallel effort, 3200 BIOA and NATP compounds were screened for PCSK9 expression inhibitors. Hits were defined as inducing greater than 3-fold downregulation of PCSK9, and 3.8% of the screened compounds were confirmed as hits. […] In further experiments, a strong correlation was confirmed between TRIB1 induction and PCSK9 repression in DOS Collection hits. ELISA analysis confirmed that treatment with TRIB1 inducers reduced the PCSK9 protein levels. LDLR protein levels were also analyzed by ELISA to determine whether compounds that modulate both TRIB1 and PCSK9 had any effect on LDLR protein levels.
# SCAP = assay: qPCR SCAP transcript level in HepG2 cells; type: cell-based, human; set-up: key: A: Increase <2-fold; B: Increase >2-fold; X: Decrease <2-fold; Y: Decrease >2-fold; No significant change
# Procedure: as §1, §2
# LDLR [3] = assay: qPCR LDLR expression in HepG2 cells; type: cell-based, human; conditions: for qPCR LDLR: HepG2 cells; for EC50: Homo sapiens, HepG2, 6 h, read-out: qPCR 6Hr (EC50 uM) LDLR up-regulation
# Procedure: as §1, §2, §3
# SCD1 = assay: qPCR SCD1 transcript level in HepG2 cells; type: cell-based; conditions: Homo sapiens, 20 h
# Procedure: as §1, §2
# HepG2 cells = assay: Cell Titer Glo (CTG) cell viability assay; type: cell-based, human; set-up: key: A: Increase <2-fold; B: Increase >2-fold; X: Decrease <2-fold; Y: Decrease >2-fold; No significant change; conditions: cell viability (ATP)
# Procedure: Cell viability was determined using a Cell Titer Glo (CTG) assay ([…]) after treatment with TRIB1 inducer compounds. In this assay, the number of viable cells in culture is based on quantitation of ATP, which indicates metabolically active cells. Addition of the reagent results in cell lysis and generation of a luminescent signal proportional to the amount of ATP present, which is directly proportional to the number of viable, metabolically active cells present in culture. Most TRIB1 inducer compounds had no significant effect on cell viability.
# PCSK9 [4] = assay: qPCR PCSK9 expression in HepG2 cells; type: cell-based, human; conditions: Homo sapiens; for fold induction at 10 µM: 20 h, HepG2 cells; for EC50: HepG2, 24 h, read-out: qPCR 24 Hr (EC50 uM) PCSK9 down-regulation
# Procedure: as §1, §2, §3
# ApoB = assay: ELISA of secreted ApoB in HepG2 cells; type: cell-based, human; set-up: key to ELISA 24 Hr (EC50 uM) ApoB decrease: A: EC50 between 0.0000001 μM≦0.5 μM; B: EC50 between 0.51 μM≦1.0 μM; EC50 between 1.1 μM≦2.0 μM; D: EC50 between 2.1 μM≦5.0 μM; EC50 between 5.1 μM≦10 μM; F: EC50>10 μM; NC: No change; conditions: for ELISA ApoB: HepG2 cells; for EC50: Homo sapiens, HepG2, 24 h, read-out: ELISA 24 Hr (EC50 uM) ApoB decrease
# Procedure: as §4, §5
# PCSK9 [5] = assay: ELISA of secreted PCSK9 protein in HepG2 cells; type: cell-based, human; conditions: for ELISA PCSK9: HepG2 cells; for EC50: Homo sapiens, HepG2, 24 h, read-out: ELISA 24 Hr (EC50 uM) PCSK9 decrease
# Procedure: as §4, §5
# HMGCR = assay: qPCR HMGCR transcript level in HepG2 cells; type: cell-based, human; set-up: key: A: Increase <2-fold; B: Increase >2-fold; X: Decrease <2-fold; Y: Decrease >2-fold; No significant change
# Procedure: as §1, §2
# SREBF1 = assay: qPCR SREBF1 transcript level in HepG2 cells; type: cell-based, human; set-up: key: A: Increase <2-fold; B: Increase >2-fold; X: Decrease <2-fold; Y: Decrease >2-fold; No significant change
# Procedure: as §1, §2
# SREBF2 = assay: qPCR SREBF2 transcript level in HepG2 cells; type: cell-based, human; set-up: key: A: Increase <2-fold; B: Increase >2-fold; X: Decrease <2-fold; Y: Decrease >2-fold; No significant change
# Procedure: as §1, §2
# FASN = assay: qPCR FASN transcript level in HepG2 cells; type: cell-based; conditions: Homo sapiens, 20 h
# Procedure: as §1, §2
# TRIB1 [6] = assay: qPCR TRIB1 expression in HepG2 cells; type: cell-based; conditions: Homo sapiens
# [7] = HepG2, 6 h, read-out: qPCR 6Hr (EC50 uM) TRIB1 up-regulation
# [8] = HepG2, induction of TRIB1 and LDLR transcript levels, read-out: half maximal effective concentration (EC50)
Structure (SMILES),EC50 (LDLR [2]) [µM],EC50 (LDLR [3]) [µM],EC50 (TRIB1 [6]; [7]) [µM],EC50 (PCSK9 [4]) [µM],EC50 (ApoB) [µM],EC50 (PCSK9 [5]) [µM],other results
O=C(C[C@@H]1CC[C@H]2[C@@H](COC[C@H](O)CN2Cc2ccc(Oc3ccccc3)cc2)O1)N1CCc2ccccc2C1 [Compound 6a],,,,,,,fold induction at 10 µM (HMGCS): > 2; fold induction at 10 µM (TRIB1 [1]): > 2; ELISA LDLR (LDLR [2]): A (Increase <2-fold); qPCR SCAP (SCAP): N; qPCR LDLR (LDLR [3]): A (Increase <2-fold); fold induction at 10 µM (SCD1): > 2; CTG (HepG2 cells): N; fold induction at 10 µM (PCSK9 [4]): > 2; ELISA ApoB (ApoB): Y (Decrease >2-fold); ELISA PCSK9 (PCSK9 [5]): Y (Decrease >2-fold); qPCR HMGCR (HMGCR): N; qPCR SREBF1 (SREBF1): N; qPCR SREBF2 (SREBF2): N; fold induction at 10 µM (FASN): > 2
CN(C)C(=O)c1ccc(-c2ccc([C@H]3[C@@H](C#N)N(C(=O)C4CCC4)[C@H]3CO)cc2)cc1 [Compound 18a],2.1 to 5,1.1 to 2,1.1 to 2,0.51 to 1,0.51 to 1,0.51 to 1,
O=C(C[C@H]1CC[C@@H]2[C@H](COC[C@H](O)CN2Cc2ccc(Oc3ccccc3)cc2)O1)N1CCc2ccccc2C1 [Compound 9a],,,,,,,fold induction at 10 µM (HMGCS): > 2; fold induction at 10 µM (TRIB1 [1]): > 2; ELISA LDLR (LDLR [2]): B (Increase >2-fold); qPCR SCAP (SCAP): N; qPCR LDLR (LDLR [3]): B (Increase >2-fold); fold induction at 10 µM (SCD1): > 2; CTG (HepG2 cells): X (Decrease <2-fold); fold induction at 10 µM (PCSK9 [4]): > 2; ELISA ApoB (ApoB): Y (Decrease >2-fold); ELISA PCSK9 (PCSK9 [5]): Y (Decrease >2-fold); qPCR HMGCR (HMGCR): Y (Decrease >2-fold); qPCR SREBF1 (SREBF1): N; qPCR SREBF2 (SREBF2): B (Increase >2-fold); fold induction at 10 µM (FASN): > 2
CN(C)C(=O)c1ccc(-c2ccc([C@H]3[C@@H](C#N)N(C(=O)C4CCCC4)[C@H]3CO)cc2)cc1 [Compound 19a],2.1 to 5,1.1 to 2,2.1 to 5,1.1 to 2,2.1 to 5,1.1 to 2,
CN1C(=O)c2cc(NC(=O)Nc3ccccc3F)ccc2OC[C@@H]2O[C@H](CC(=O)NCc3ccc(-c4ccccc4)cc3)CC[C@@H]21 [Compound 15a],,,,,,,EC50 (TRIB1 [6]; [8]): < 1 µM
CCCNC(=O)N1[C@H](C#N)[C@H](c2ccc(-c3cccnc3)cc2)[C@@H]1CO [Compound 23a],0.51 to 1,2.1 to 5,2.1 to 5,1.1 to 2,,1.1 to 2,ELISA 24 Hr (EC50 uM) ApoB decrease (ApoB): NC
N#C[C@@H]1[C@H](c2ccc(-c3cccc(F)c3)cc2)[C@@H](CO)N1C(=O)c1cccnc1 [Compound 24a],5.1 to 10,2.1 to 5,5.1 to 10,,,2.1 to 5,ELISA 24 Hr (EC50 uM) ApoB decrease (ApoB): NC
CN(C)C(=O)c1ccc(-c2ccc([C@H]3[C@@H](C#N)N(C(=O)C4CCCCC4)[C@H]3CO)cc2)cc1 [Compound 17a],1.1 to 2,0.51 to 1,0.51 to 1,,,,EC50 (TRIB1 [6]; [8]): < 1 µM
COCC(=O)Nc1ccc2c(c1)C(=O)N(C)[C@H]1CC[C@@H](CC(=O)NC3Cc4ccccc4C3)O[C@H]1CO2 [Compound 16a],,,,,,,EC50 (TRIB1 [6]; [8]): < 1 µM
N#C[C@H]1[C@H](c2ccc(-c3cccc(F)c3)cc2)[C@@H](CO)N1C(=O)NC1CCCC1 [Compound 20a],1.1 to 2,2.1 to 5,2.1 to 5,0.51 to 1,> 10,1.1 to 2,
N#C[C@@H]1[C@H](c2ccc(-c3ccccc3F)cc2)[C@H](CO)N1C(=O)C1CCC1 [Compound 21a],5.1 to 10,5.1 to 10,2.1 to 5,0.51 to 1,> 10,1.1 to 2,
CN(C)C(=O)c1ccc(-c2ccc([C@H]3[C@@H](C#N)N(C(=O)C4CCC4)[C@@H]3CO)cc2)cc1 [Compound 22a],1.1 to 2,2.1 to 5,2.1 to 5,1.1 to 2,,2.1 to 5,ELISA 24 Hr (EC50 uM) ApoB decrease (ApoB): NC

# Source: patent US9526720B2, “Modulators of hepatic lipoprotein metabolism” (The Broad Institute, Inc., priority 2012, dated 2016)
